In patent US9765358B2 (priority 2015, dated 2017):

Legend:
[1] = tested on: Lactobacillus plantarum; assay type: cell-based
[2] = tested on: Clostridium beijerinckii; assay type: cell-based

Molecule: CC[C@H]1OC(=O)[C@H](C)[C@@H](O[C@H]2C[C@@](C)(OC)[C@@H](O)[C@H](C)O2)[C@H](C)[C@@H](O[C@@H]2O[C@H](C)C[C@H](N(C)C)[C@H]2O)[C@](C)(O)C[C@@H](C)CN(C)[C@H](C)[C@@H](O)[C@]1(C)O [azithromycin]
- antibiotic susceptibility (disc, zone of clearance) [1]: susceptible
- antibiotic susceptibility (disc, zone of clearance) [2]: susceptible

Molecule: CC1(C)S[C@@H]2[C@H](NC(=O)C(C(=O)O)c3ccccc3)C(=O)N2[C@H]1C(=O)O (stereo partly drawn) [carbenicillin]
- antibiotic susceptibility (disc, zone of clearance) [1]: resistant
- antibiotic susceptibility (disc, zone of clearance) [2]: susceptible

Molecule: Cc1ncc([N+](=O)[O-])n1CCO [metronidazole]
- antibiotic susceptibility (disc, zone of clearance) [1]: resistance
- antibiotic susceptibility (disc, zone of clearance) [2]: susceptible

Molecule: CN[C@H](CC(C)C)C(=O)N[C@H]1C(=O)N[C@@H](CC(N)=O)C(=O)N[C@H]2C(=O)N[C@H]3C(=O)N[C@H](C(=O)N[C@H](C(=O)O)c4cc(O)cc(O)c4-c4cc3ccc4O)[C@H](O)c3ccc(c(Cl)c3)Oc3cc2cc(c3O[C@@H]2O[C@H](CO)[C@@H](O)[C@H](O)[C@H]2O[C@H]2C[C@](C)(N)[C@H](O)[C@H](C)O2)Oc2ccc(cc2Cl)[C@H]1O [vancomycin]
- antibiotic susceptibility (disc, zone of clearance) [2]: susceptible

Molecule: amoxicillin/clavulinic acid
- antibiotic susceptibility (disc, zone of clearance) [1]: resistant
- antibiotic susceptibility (disc, zone of clearance) [2]: susceptible
